Test results from the Kinase Knowledgebase extract (Sharma et al. 2016).

Key:
MAPK14 = MAPK14 (UniProt Q16539); experiment: Inhibition of MAPK14 Kinase Activity
CDK2 = CDK2 (UniProt P24941); experiment: Enzyme Assay

MAPK14, sequence (Q16539 whole entry, looked up): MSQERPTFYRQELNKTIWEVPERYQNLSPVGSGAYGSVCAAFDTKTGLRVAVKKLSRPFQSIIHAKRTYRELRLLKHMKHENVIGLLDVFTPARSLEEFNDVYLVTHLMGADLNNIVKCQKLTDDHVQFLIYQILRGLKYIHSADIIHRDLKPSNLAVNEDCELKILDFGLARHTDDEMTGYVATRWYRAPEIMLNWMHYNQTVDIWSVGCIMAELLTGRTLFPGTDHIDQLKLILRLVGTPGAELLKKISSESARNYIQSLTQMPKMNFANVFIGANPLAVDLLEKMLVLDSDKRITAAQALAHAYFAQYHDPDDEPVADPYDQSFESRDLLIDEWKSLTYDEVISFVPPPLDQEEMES

COc1ccccc1-c1cc(C=C2C(=O)Nc3ncc(Br)cc32)cc(Br)c1O
IC50 (MAPK14): < 1000 nM

NS(=O)(=O)c1ccc(-c2ccc(C=C3C(=O)Nc4ncc(-c5ccsc5)cc43)o2)cc1
IC50 (CDK2): < 1000 nM

O=C1Nc2nc(Cl)ccc2C1=Cc1cc(Br)c(O)c(Br)c1
IC50 (MAPK14): < 1000 nM

O=C1Nc2ncc(Br)cc2C1=Cc1cc([N+](=O)[O-])c(O)c([N+](=O)[O-])c1
IC50 (CDK2): < 1000 nM

O=C1Nc2ncc(Br)cc2C1=Cc1cc(Br)c(O)c(Br)c1
IC50 (CDK2): < 1000 nM | IC50 (MAPK14): < 1000 nM

CCc1cnc2c(c1)C(=Cc1cc(Br)c(O)c(Br)c1)C(=O)N2
IC50 (CDK2): < 1000 nM | IC50 (MAPK14): < 1000 nM

NC(=O)c1cncc(-c2cnc3c(c2)C(=Cc2cc(Br)c(O)c(Br)c2)C(=O)N3)c1
IC50 (MAPK14): 1000 to 10000 nM

C=Cc1cnc2c(c1)C(=Cc1cc(Br)c(O)c(Br)c1)C(=O)N2
IC50 (CDK2): < 1000 nM
